# Test results published in paper PMC6804243, “Small-Molecule Inhibition of UBE2T/FANCL-Mediated Ubiquitylation in the Fanconi Anemia Pathway” (ACS Chemical Biology, 2019).
# Entries after “also recorded” stand apart in the source; their conditions may differ. Where two headings read alike, the source gives them in different places.
# Columns and labels:
# UBE2T / GST-FANCLRING = test system: T1, UBE2T / GST-FANCLRING; test: Gel-based ubiquitylation assay, E2 = UBE2T, E3 = GST-FANCLRING; type: biochemical; settings: compound 100 μM, 30 min at 37 °C, Western blot
# T1 construct: the RING domain (residues 275–375) of the E3 FANCL (FANCLRING); His6 (N); made in house; host or cells: E. coli Rosetta (DE3)
# UBE1 = test system: T2, UBE1; test: Gel-based ubiquitylation assay (UBE2T/GST-FANCLRING), autoubiquitylation of UBE1; type: biochemical; settings: compound 100 μM; Western blot probed for biotin
# T2 construct: purchased Boston Biochem
# UBE2D1 = test system: T3, UBE2D1; test: Gel-based ubiquitylation assay (UBE2D1/GST-FANCLRING), ubiquitylated UBE2D1 species; type: biochemical; settings: E2 = UBE2D1, E3 = GST-FANCLRING; 30 min at 37 °C
# T3 construct: His6 (N); made in house; host or cells: E. coli Rosetta (DE3)
# Protocol: (§1) Figure 2 Gel-based ubiquitylation assays with confirmed HTRF hits. […] Western blots (WB) probed for GST or biotin as labeled. Reactions contained 20 nM His6-UBE1, 50 nM E2, 250 nM GST-E3, 500 nM biotinylated ubiquitin: (a) E2 = UBE2T, E3 = GST-FANCLRING, 30 min of reaction at 37 °C; (b) E2 = UBE2D1, E3 = GST-FANCLRING, 30 min of reaction at 37 °C; and (c) E2 = UBE2D1, E3 = GST-RNF8, 10 min of reaction at 37 °C.
# (§2) In order to explore the selectivity of CU1, CU2, CU9, CU10, and CU12, we conducted a counter-screen against other E2 and E3 combinations. Since members of the UBE2D family of E2s are known to ubiquitylate multiple substrates in vitro,[13] a ubiquitylation assay featuring UBE2D1 and GST-FANCLRING was performed. With UBE2D1, multiple ubiquitylated GST-FANCLRING species could be observed (Figure 2b).
# (§3) Purified protein was concentrated using a Vivaspin-6 concentrator with a 10 kDa MW cut-off (Vivascience) and flash-frozen in small aliquots for storage at […]
# Cy5 labelling of ubiquitin. […]
# Homogeneous Time-Resolved Fluorescence (HTRF) Assay. […]
# (v/v) DMSO. […] Signal was measured at λEx 340 nm and λEm 665 nm and 620 nm using a PHERAstar FS plate reader
# (BMG Labtech). A ratio was calculated as [λEm(665)/λEm(620)] × 104 for each well and this was used to determine the percent inhibition for test compounds. […]
# UBE2D1 / GST-RNF8 = test system: T4, UBE2D1 / GST-RNF8; test: Gel-based ubiquitylation assay, E2 = UBE2D1, E3 = GST-RNF8; type: biochemical; settings: 10 min at 37 °C, Western blot
# T4 construct: His6 (N); made in house; host or cells: E. coli Rosetta (DE3)
# Protocol: as §1
# A further ubiquitylation assay was performed with an alternative E3, RNF8, which also plays important roles in the DDR.[14] In contrast to GST-FANCLRING, long polyubiquitin chains were attached to GST-RNF8 by UBE2D1 (Figure 2c).
# as §3
# (§4) Cy5 labelling of ubiquitin. To a 5 mg/mL solution of recombinant human ubiquitin (Boston Biochem) in 0.1 M NaHCO3 pH 8.3, was added a 4-fold molar excess of Cyanine5 NHS ester (Lumiprobe). The reaction was incubated at 23 °C for 4 hours in the dark. The protein was separated from unreacted dye by passage through a PD-10 desalting column (GE Healthcare) equilibrated with PBS. Purified protein was concentrated using a Vivaspin-6 concentrator with a 3 kDa MW cut-off (Vivascience) and flash-frozen in small aliquots for storage […]
# (§5) Homogeneous Time-Resolved Fluorescence (HTRF) Assay. GST-FANCLRING (200 nM) was incubated with anti-GST Tb (CisBio, #61GSTTL) (2.5 ng final) at room temperature for 30 minutes in assay buffer (50 mM Tris-HCl pH 8.0, 1 mM TCEP, 5 mM MgCl2, 0.005% Tween-20). Meanwhile, 10 μL of UBE2T in assay buffer (or assay buffer alone for no enzyme controls) was incubated in a white 384-well plate (Corning) with 20 nL DMSO or compound in DMSO. After 30 minutes, the GST-RINGRING solution was added to an equal volume solution containing His-UBE1 (Boston Biochem) (16 nM), Cy5-ubiquitin (400 nM), ATP (0.8 mM) in assay buffer. 10 μL of this solution was immediately added to each well of the 384 -well plate containing UBE2T or buffer. F inal concentrations: His -UBE1 (4 nM), UBE2T (6 nM), GST -RINGRING (50 nM), Cy5-ubiquitin (100 nM), ATP (0.2 mM), compound (10 or 20 μM) in 0.1 %
# (§6) (v/v) DMSO. After a 10 minute incubation at 23 °C, 5 µL of a 50 mM EDTA solution were added to each well to stop the reaction. Signal was measured at λEx 340 nm and λEm 665 nm and 620 nm using a PHERAstar FS plate reader
# (§7) (BMG Labtech). A ratio was calculated as [λEm(665)/λEm(620)] × 104 for each well and this was used to determine the percent inhibition for test compounds.
# (§8) Gel-based ubiquitylation assays. Assays were carried out in a total volume of 10 µL containing 20 nM His6-UBE1 (Boston Biochem), 50 nM UBE2T, 250 nM GST-E3 and 500 nM biotinylated ubiquitin (Boston Biochem) in buffer (50 […]
# (§9) Reaction mixtures were incubated for the indicated time at 37 °C and stopped by the addition of 2X reducing SDS -PAGE sample buffer, separated on NuPAGE Novex 4 –12% Bis/Tris gradient gels (Invitrogen) and visualized by Western blotting using the indicated antibodies (Table S3).
# Cell culture. U2OS cells were cultured at 37 °C in a humidified atmosphere and 5% (v/v) CO2 in Dulbecco's Modified Eagle Medium (DMEM; Sigma-Aldrich) supplemented with 10% (v/v) fetal bovine serum (FBS), 100 units/ml of penicillin, […] of streptomycin and 292 μg/mL L-glutamine.
# Cell extract preparation and immunoblotting. U2OS cells were lysed in buffer containing 50 mM Tris-HCl pH 7.5, 2% SDS, 10 mM NEM, cocktail protease inhibitor (Roche) and phosphatase inhibitor cocktail followed by sonication 100 µg of extracts were boiled for 5 mins at 95 °C in 5X loading buffer and loaded onto NuPAGE Novex 4–12% Bis/Tris gradient gels
# (Invitrogen), or NuPAGE Novex 3-8% Tris/Acetate gradient gels (Invitrogen) for detection of mUb-FANCD2. After separation the gels were transferred to PVDF and the membranes were blocked with Tris-buffered saline containing 0.1% (v/v) Tween-20 (TBST) and 5% (v/v) bovine serum albumin (BSA) and […]
# UBE2D1 / GST-FANCLRING = test system: T5, UBE2D1 / GST-FANCLRING; test: Gel-based ubiquitylation assay, E2 = UBE2D1, E3 = GST-FANCLRING; type: biochemical; settings: 30 min at 37 °C, Western blot
# T5 construct: the RING domain (residues 275–375) of the E3 FANCL (FANCLRING); His6 (N); made in house; host or cells: E. coli Rosetta (DE3)
# Protocol: as §1, §2, §3, §4, §5, §6, §7, §8, §9
# Cell culture. […]
# [1] = biological target: T6, UBE2T/FANCLRING (ubiquitylation of GST-FANCLRING) (Homo sapiens, UniProt Q9NW38); test: biochemical
# T6 sequence (Q9NW38 275-375 limits assumed): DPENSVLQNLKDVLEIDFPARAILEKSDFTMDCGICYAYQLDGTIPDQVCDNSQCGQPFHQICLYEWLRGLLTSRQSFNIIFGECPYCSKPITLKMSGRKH
# From the text: To identify small-molecule inhibitors of the FA pathway, we developed a high-throughput screen (HTS) compatible assay based on the FA ubiquitylation cascade (see Figure 1a, as well as Figure S1 in the Supporting Information). Given the complexity of the full FA ubiquitylation cascade, we constructed a simplified ubiquitylation reaction that would be robust for HTS purposes yet still provide many relevant protein species for small molecules to interact with. The recombinant protein assay developed used homogeneous time-resolved fluorescence (HTRF) and contained Cy5-labeled ubiquitin, the E1 enzyme UBE1, the E2 enzyme UBE2T, and the RING domain (residues 275–375) of the E3 FANCL (FANCLRING). FANCLRING was used as a surrogate substrate for ubiquitylation in the absence of the FA core and FANCD2/FANCI complexes.
# Figure 1 Screening for inhibitors of the FA pathway. (a) Schematic of the HTRF ubiquitylation assay. Ubiquitylation of GST-tagged E3 (FANCLRING) by the E2 (UBE2T) places Cy5-labeled ubiquitin in close proximity to the anti-GST Tb cryptate. Excitation of the Tb cryptate donor results in FRET to the Cy5 acceptor. Simultaneous monitoring of the donor emission (620 nm) and acceptor emission (665 nm) allows for determination of the 665/620 ratio. (b) HTRF screen results showing average inhibition (n = 2) produced by compounds at 20 μM (in-house diversity library; 10 111 compounds) and 10 μM (Selleckchem epigenetic library; 119 compounds). Numbers given in parentheses represent the number of compounds per inhibition threshold.
# as §3, §4, §5, §6, §7
# Gel-based ubiquitylation assays. Assays were carried out in a total volume of 10 µL containing 20 nM His6-UBE1 (Boston Biochem), 50 nM UBE2T, 250 nM GST-E3 and 500 nM biotinylated ubiquitin (Boston Biochem) in buffer (50
# UBE2T = test system: T7, UBE2T; test: Gel-based ubiquitylation assay (UBE2T/GST-FANCLRING), blot probed for UBE2T; type: biochemical; settings: compound 100 μM; Western blot probed for UBE2T
# T7 construct: His6 (N); made in house; host or cells: E. coli Rosetta (DE3)
compound,measurement,setting,value
O=C(CCc1ccco1)NS(=O)(=O)c1cccc2ncccc12 [CU10],ubiquitylation of GST-FANCLRING (mUb-GST-FANCLRING band),UBE2T / GST-FANCLRING,no ubiquitylation of FANCLRING was observed
same,autoubiquitylation of UBE1,UBE1,somewhat impaired the autoubiquitylation of UBE1
same,formation of ubiquitylated UBE2D1 species,UBE2D1,prevented the formation of any ubiquitylated UBE2D1 species
same,ubiquitylation of GST-RNF8 and UBE2D1,UBE2D1 / GST-RNF8,appeared to inhibit the ubiquitylation of all species in the assay
same,ubiquitylation of GST-FANCLRING,UBE2D1 / GST-FANCLRING,essentially abolished the ubiquitylation of GST-FANCLRING
same,IC50,"[1]; library stock, 10-point dose-response, read-out: Primary screen IC50",10.9 µM
same,LE,[1]; ligand efficiency = 1.4(–logIC50)/HAC,0.35
same,IC50,"[1]; printed beside the structures in Figure S3, read-out: IC50 (Figure S3)",2.1 µM
same,inhibition at 20 µM,[1]; read-out: Primary screen % Inhibition (20 M),93.8%
same,ubiquitylation of UBE2T,UBE2T,prevented the ubiquitylation of UBE2T; also recorded: essentially completely inhibited
